Tests used:
Type in all cases: in vivo, human
[1] = test system: patients having Fragile X Syndrome (FXS); assay: Clinical response versus placebo in clinical study (measure not given)
Text: As used herein, “an mGluR5 responder” is an individual having FXS who is likely following therapeutic treatment with an mGluR5 antagonist to show improved behavioral symptoms as assessed using the Aberrant Behavior Checklist—Community Edition (ABC-C) measure of behavior (Bihm et al., Am. J. Ment Retard 96:209-211). The ABC-C measurement looks at various behaviors including stereotypic behavior, hyperactivity, inappropriate speech, and restricted interests. […] The behavioral symptoms may also be assessed by other methods, such as Clinical Global Impression (CGI) scale, Social Responsiveness Scale (SRS), or Repetitive Behavior Scale-Revised (RBS-R). Individuals showing an improvement according to these tests will also be determined to be an mGluR5 responder. […]
Among the 30 patients who completed the clinical study, 26 consented for pharmacogenetic/pharmacogenomic assessments. […] A total of 26 DNA and 24 RNA samples were successfully extracted and analyzed. […]
Genomic DNA was treated with bisulfite (Qiagen, Valencia, Calif.). […] A total of 26 patients and 4 normal controls were analyzed.
FMR1 mRNA expression was measured by Taqman real-time PCR. […]
The expression levels of the control genes, GAPDH and UBC, were used to adjust for inter-sample variability. […] A total of 24 patients and 9 normal controls were analyzed. […]

[2] = test system: patients having Fragile X Syndrome (FXS); assay: Aberrant Behavior Checklist-Community Edition (ABC-C) scores in clinical study, by FMR1 methylation status / mRNA expression; conditions: for ABC-C improvement in response over placebo / ABC-C Subscale I (Irritability), treatment difference / ABC-C Subscale II (Lethargy), treatment difference / ABC-C Subscale III (Stereotype), treatment difference / ABC-C Subscale IV (Hyperactivity), treatment difference / ABC-C Subscale V (Inappropriate Speech), treatment difference / ABC-C Total of subscales, treatment difference: day 19; for ABC-C Subscale I (Irritability), treatment difference / ABC-C Subscale II (Lethargy), treatment difference / ABC-C Subscale III (Stereotype), treatment difference / ABC-C Subscale IV (Hyperactivity), treatment difference / ABC-C Subscale V (Inappropriate Speech), treatment difference / ABC-C Total of subscales, treatment difference: versus placebo, adjusted for baseline
Text: (§1) As used herein, “an mGluR5 responder” is an individual having FXS who is likely following therapeutic treatment with an mGluR5 antagonist to show improved behavioral symptoms as assessed using the Aberrant Behavior Checklist—Community Edition (ABC-C) measure of behavior (Bihm et al., Am. J. Ment Retard 96:209-211). The ABC-C measurement looks at various behaviors including stereotypic behavior, hyperactivity, inappropriate speech, and restricted interests. […] The behavioral symptoms may also be assessed by other methods, such as Clinical Global Impression (CGI) scale, Social Responsiveness Scale (SRS), or Repetitive Behavior Scale-Revised (RBS-R). Individuals showing an improvement according to these tests will also be determined to be an mGluR5 responder.
(§2) The present examples were performed as a follow up to a clinical trial which investigated whether the mGluR5 antagonist (−)-(3aR,4S,7aR)-4-Hydroxy-4-m-tolylethynyl-octahydro-indole-1-carboxylic acid methyl ester could provide beneficial treatment to a subject having FXS. The present study was set up to identify if a subset of patients exist that respond to (−)-(3aR,4S,7aR)-4-Hydroxy-4-m-tolylethynyl-octahydro-indole-1-carboxylic acid methyl ester treatment. In an attempt to identify such a subset of patients who respond to (−)-(3aR,4S,7aR)-4-Hydroxy-4-m-tolylethynyl-octahydro-indole-1-carboxylic acid methyl ester treatment, a study was conducted to investigate the relationship between FMR1 methylation/mRNA expression and (−)-(3aR,4S,7aR)-4-Hydroxy-4-m-tolylethynyl-octahydro-indole-1-carboxylic acid methyl ester efficacy in the study.
(§3) Among the 30 patients who completed the clinical study, 26 consented for pharmacogenetic/pharmacogenomic assessments. Genomic DNA was extracted from whole blood according to the instructions from Gentra (Minneapolis, Minn.). Total RNA was extracted from whole blood according to the instructions from Qiagen (Valencia, Calif.). A total of 26 DNA and 24 RNA samples were successfully extracted and analyzed. In addition, normal control DNAs were purchased from Coriell Institute (Camden, N.J.).
(§4) Genomic DNA was treated with bisulfite (Qiagen, Valencia, Calif.). MSP was performed using the CpG WIZ Fragile X Amplification Kit from Chemicon (Temecula, Calif.) according to manufacture's instruction. A total of 26 patients and 4 normal controls were analyzed.
(§5) FMR1 mRNA expression was measured by Taqman real-time PCR. The primers and probe were designed by Applied Biosystems (Foster City, Calif.; fragile X mental retardation 1 Hs 00924544_ml, Glyceraldehyde-3-phosphate dehydrogenase Hs 99999905_ml; ubiquitin C Hs 00824723_ml)
(§6) The expression levels of the control genes, GAPDH and UBC, were used to adjust for inter-sample variability. The data is presented as normalized Ct (cycle threshold). A Ct value≧36 is considered to be the background of the assay. A total of 24 patients and 9 normal controls were analyzed.
(§7) Genomic DNA was treated with […] (Qiagen, Valencia, Calif.). The following primers were used to amplify the FMR1 promoter with 22 CpG sites: 5′-[…]-3′ (SEQ ID NO:10); and 5′-[…]-3′ (SEQ ID NO:11). The 196-bp FMR1 promoter was cloned using the TA cloning kit from Invitrogen (Carlsbad, Calif.) and 7-13 clones per patient were sequenced using ABI3730XL (Foster City, Calif.). More details can be found in the BMD report. A total of 26 patients and 4 normal controls were analyzed.

[3] = test system: patients having Fragile X Syndrome (FXS); assay: Clinical Global Impression (CGI) scale in clinical study, by FMR1 methylation status / mRNA expression; conditions: for CGI-global improvement, treatment difference / CGI-efficacy index, treatment difference: versus placebo, adjusted for baseline; for CGI-global improvement, treatment difference: decrease = improvement; for CGI-efficacy index, treatment difference: increase = improvement
Text: as §1, §2, §3, §4, §5, §6, §7

[4] = test system: patients having Fragile X Syndrome (FXS); assay: as above; conditions: day 19; patients fully methylated (probe-based methylation assay, 12 patients analysed) and/or not expressing FMR1 mRNA; p<0.001
[5] = fully methylated patients after reclassification (MSP, bisulfite-sequencing, additional MSP), p<0.001
[6] = patients who did not express FMR1 mRNA (n = 7)
[7] = patients who expressed FMR1 mRNA (n = 17)
[8] = patients with full methylation (n = 8)
[9] = patients with partial methylation (n = 18)
[10] = reclassified: patients with full methylation (determined by MSP and sequencing) (n = 7)
[11] = reclassified: patients with partial methylation (determined by MSP and sequencing) (n = 18)
[12] = day 19, patients who did not express FMR1 mRNA (n = 7)
[13] = day 19, patients who expressed FMR1 mRNA (n = 17)
[14] = day 19, patients with full methylation (n = 8)
[15] = day 19, patients with partial methylation (n = 18)
[16] = day 19, reclassified: patients with full methylation (by MSP and sequencing) (n = 7)
[17] = day 19, reclassified: patients with partial methylation (by MSP and sequencing) (n = 18)

**Q.** What does the source list for `COC(=O)N1CC[C@@H]2[C@H]1CCC[C@@]2(O)C#Cc1cccc(C)c1` [(−)-(3aR,4S,7aR)-4-Hydroxy-4-m-tolylethynyl-octahydro-indole-1-carboxylic acid methyl ester]?
**A.** Difference between compound and placebo ([1]; patients partially methylated (initial MSP) or expressing FMR1 mRNA): no significant differences; Difference between compound and placebo ([1]; patients partially methylated (probe-based methylation assay) or expressing FMR1 mRNA): no significant differences; ABC-C improvement in response over placebo ([2]; patients fully methylated (initial MSP) or not expressing FMR1 mRNA, p<0.001): significantly greater improvement; ABC-C improvement in response over placebo ([2]; patients fully methylated (probe-based methylation assay, 12 patients analysed) and/or not expressing FMR1 mRNA, p<0.001): significantly greater improvement; ABC-C response versus placebo [2, 5]: significantly higher than placebo; ABC-C Subscale I (Irritability), treatment difference [2, 6]: −3.69; ABC-C Subscale II (Lethargy), treatment difference [2, 6]: −6.71; ABC-C Subscale III (Stereotype), treatment difference [2, 6]: −3.03; ABC-C Subscale IV (Hyperactivity), treatment difference [2, 6]: −9.12; ABC-C Subscale V (Inappropriate Speech), treatment difference [2, 6]: −4.66; ABC-C Total of subscales, treatment difference [2, 6]: −32.19; ABC-C Subscale I (Irritability), treatment difference [2, 7]: −0.81; ABC-C Subscale II (Lethargy), treatment difference [2, 7]: 1.93; ABC-C Subscale III (Stereotype), treatment difference [2, 7]: 0.32; ABC-C Subscale IV (Hyperactivity), treatment difference [2, 7]: −0.16; ABC-C Subscale V (Inappropriate Speech), treatment difference [2, 7]: 1.09; ABC-C Total of subscales, treatment difference [2, 7]: 2.23; ABC-C Subscale I (Irritability), treatment difference [2, 8]: −4.33; ABC-C Subscale II (Lethargy), treatment difference [2, 8]: −6.55; ABC-C Subscale III (Stereotype), treatment difference [2, 8]: −3.96; ABC-C Subscale IV (Hyperactivity), treatment difference [2, 8]: −8.77; ABC-C Subscale V (Inappropriate Speech), treatment difference [2, 8]: −4.48; ABC-C Total of subscales, treatment difference [2, 8]: −30.85; ABC-C Subscale I (Irritability), treatment difference [2, 9]: −0.67; ABC-C Subscale II (Lethargy), treatment difference [2, 9]: 3.76; ABC-C Subscale III (Stereotype), treatment difference [2, 9]: 0.89; ABC-C Subscale IV (Hyperactivity), treatment difference [2, 9]: 0.42; ABC-C Subscale V (Inappropriate Speech), treatment difference [2, 9]: 1.09; ABC-C Total of subscales, treatment difference [2, 9]: 5.66; ABC-C Subscale I (Irritability), treatment difference [2, 10]: −2.66; ABC-C Subscale II (Lethargy), treatment difference [2, 10]: −5.53; ABC-C Subscale III (Stereotype), treatment difference [2, 10]: −5.06; ABC-C Subscale IV (Hyperactivity), treatment difference [2, 10]: −8.55; ABC-C Subscale V (Inappropriate Speech), treatment difference [2, 10]: −4.31; ABC-C Total of subscales, treatment difference [2, 10]: −27.82; ABC-C Subscale I (Irritability), treatment difference [2, 11]: −1.15; ABC-C Subscale II (Lethargy), treatment difference [2, 11]: 2.66; ABC-C Subscale III (Stereotype), treatment difference [2, 11]: 0.78; ABC-C Subscale IV (Hyperactivity), treatment difference [2, 11]: −0.21; ABC-C Subscale V (Inappropriate Speech), treatment difference [2, 11]: 0.81; ABC-C Total of subscales, treatment difference [2, 11]: 3.10; CGI-efficacy index improvement in response over placebo ([3]; day 19, patients fully methylated (initial MSP) or not expressing FMR1 mRNA, p<0.001): significantly greater improvement; CGI-efficacy index response versus placebo [3, 5]: significantly higher than placebo; CGI-global improvement, treatment difference [3, 12]: −2.02; CGI-efficacy index, treatment difference [3, 12]: 1.99; CGI-global improvement, treatment difference [3, 13]: 0.56; CGI-efficacy index, treatment difference [3, 13]: −0.47; CGI-global improvement, treatment difference [3, 14]: −1.94; CGI-efficacy index, treatment difference [3, 14]: 1.86; CGI-global improvement, treatment difference [3, 15]: 0.67; CGI-efficacy index, treatment difference [3, 15]: −0.58; CGI-global improvement, treatment difference [3, 16]: −1.78; CGI-efficacy index, treatment difference [3, 16]: 1.76; CGI-global improvement, treatment difference [3, 17]: 0.58; CGI-efficacy index, treatment difference [3, 17]: −0.43; CGI-efficacy index improvement in response over placebo [4]: significantly greater improvement

— patent publication US20130052644A1, “Predictive Markers Useful in the Treatment of Fragile X Syndrome (FXS)” (priority 2010, published 2013)
